{
  "source": "paper PMC3180442",
  "about": "(PLoS ONE, 2011)",
  "key": {"[1]": {"molecular_target": "T1, RipA (Yersinia pestis, UniProt Q9ZC36)", "conditions": "5 µM RipA, 20 µM ligand, 100 mM potassium phosphate pH 7.4; Tm with ligand, apo RipA 45.8 °C"}, "[2]": {"molecular_target": "T1, RipA", "conditions": "10 mM acid vs 10 mM acetate, butyryl-CoA as CoA donor, 100 mM Tris pH 7.0, room temperature; competing acceptor acid"}, "[3]": {"molecular_target": "T1, RipA", "conditions": "active site near Glu249; crystals grown with succinyl-CoA and tacsimate pH 5.0; acetate is the CoA acceptor in the activity assay"}, "[4]": {"molecular_target": "Yersinia pestis RipA (Yersinia pestis)", "experiment": "SAXS"}, "[5]": {"molecular_target": "Yersinia pestis RipA (Yersinia pestis)", "experiment": "crystal structure"}, "[6]": {"molecular_target": "Yersinia pestis RipA (Yersinia pestis)", "experiment": "SEC"}},
  "data": [
    {"compound": "CC(=O)CC(=O)SCCNC(=O)CCNC(=O)[C@H](O)C(C)(C)COP(=O)(O)OP(=O)(O)OC[C@H]1O[C@@H](n2cnc3c(N)ncnc32)[C@H](O)[C@@H]1OP(=O)(O)O", "note": "[Aceto-acetyl-CoA]", "values": [
      {"measurement": "Tm (°C)", "setting": "[1]", "value": "48.3±0.01", "unit": "°C"}
    ]},
    {"compound": "C/C=C/C(=O)SCCNC(=O)CCNC(=O)[C@H](O)C(C)(C)COP(=O)(O)OP(=O)(O)OC[C@H]1O[C@@H](n2cnc3c(N)ncnc32)[C@H](O)[C@@H]1OP(=O)(O)O", "note": "[Crotonyl-CoA]", "values": [
      {"measurement": "Tm (°C)", "setting": "[1]", "value": "47.9±0.54", "unit": "°C"}
    ]},
    {"compound": "CCCC(=O)O", "note": "[butyrate]", "values": [
      {"measurement": "% decrease in the rate of acetyl-CoA formation", "setting": "[2]", "value": 80, "unit": "%"}
    ]},
    {"compound": "O=C(O)CCCO", "note": "[4-hydroxybutyrate]", "values": [
      {"measurement": "% decrease in the rate of acetyl-CoA formation", "setting": "[2]", "value": 10, "unit": "%"}
    ]},
    {"compound": "CCC(=O)SCCNC(=O)CCNC(=O)[C@H](O)C(C)(C)COP(=O)(O)OP(=O)(O)OC[C@H]1O[C@@H](n2cnc3c(N)ncnc32)[C@H](O)[C@@H]1OP(=O)(O)O", "note": "[Propionyl-CoA]", "values": [
      {"measurement": "Tm (°C)", "setting": "[1]", "value": "53.5±0.06", "unit": "°C"}
    ]},
    {"compound": "CC(=O)SCCNC(=O)CCNC(=O)[C@H](O)C(C)(C)COP(=O)(O)OP(=O)(O)OC[C@H]1O[C@@H](n2cnc3c(N)ncnc32)[C@H](O)[C@@H]1OP(=O)(O)O", "note": "[Acetyl-CoA]", "values": [
      {"measurement": "Tm (°C)", "setting": "[1]", "value": "52.8±0.03", "unit": "°C"}
    ]},
    {"compound": "CC(C)(COP(=O)(O)OP(=O)(O)OC[C@H]1O[C@@H](n2cnc3c(N)ncnc32)[C@H](O)[C@@H]1OP(=O)(O)O)[C@@H](O)C(=O)NCCC(=O)NCCSC(=O)CCC(=O)O", "note": "[Succinyl-CoA]", "values": [
      {"measurement": "Tm (°C)", "setting": "[1]", "value": "52.8±0.28", "unit": "°C"}
    ]},
    {"compound": "CC(=O)O", "note": "[acetate]", "values": [
      {"measurement": "X-ray crystal structure, 1.9 Å", "setting": "[3]", "value": "electron density near the active site glutamate suggests an acetate molecule is located within"}
    ]},
    {"compound": "CCC(=O)O", "note": "[propionate]", "values": [
      {"measurement": "% decrease in the rate of acetyl-CoA formation", "setting": "[2]", "value": 80, "unit": "%"}
    ]},
    {"compound": "Yersinia pestis RipA (enzyme)", "values": [
      {"measurement": "stoichiometry N", "setting": "[4]", "value": 4},
      {"measurement": "stoichiometry N", "setting": "[5]", "value": 4},
      {"measurement": "stoichiometry N", "setting": "[6]", "value": 4}
    ]},
    {"compound": "CCCC(=O)SCCNC(=O)CCNC(=O)[C@H](O)C(C)(C)COP(=O)(O)OP(=O)(O)OC[C@H]1O[C@@H](n2cnc3c(N)ncnc32)[C@H](O)[C@@H]1OP(=O)(O)O", "note": "[Butyryl-CoA]", "values": [
      {"measurement": "Tm (°C)", "setting": "[1]", "value": "53.4±0.05", "unit": "°C"}
    ]}
  ]
}
